Data reported in patent US20260335282A1, “NOVEL 3-ARYLIDENE-2-INDOLINONE DERIVATIVES FOR THERAPEUTIC USE” (ISTANBUL UNIVERSITESI REKTORLUGU, priority 2022, published 2026).
“Also recorded” adds a separate entry of the source.

Assays:
MIAPaCa-2 cells = assay: MTT cytotoxicity, pancreas cancer cells MIAPaCa-2; type: cell-based, human; conditions: for selectivity index: MCF-10F/Beas2b vs MIAPaCa-2
How it was run: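 Cells were seeded at 5000 per well and treated next day with compound at 0.1, 1, 5 and 10 μM (final) for 48 and/or 72 h, with matched DMSO controls. MTT was added for 4 h and formazan was dissolved in DMSO and read at 570/630 nm. % viability against control gave IC50 from dose-response curves.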

[1] = test system: general tyrosine kinase activity in MIA PaCa-2 pancreas cancer cells; assay: General tyrosine kinase activity (ELISA) in MIAPaCa-2 cells; type: cell-based, human; conditions: 72 hours, IC50 concentration
Method: (§1) Takara Universal Tyrosine Kinase Assay Kit is used to determine the effects of 11 2-indolinone compounds (Y1, Y2, Y3, Y4, Y5, Y8, […], […], Y21, Y23, 20C, 22C) on general tyrosine kinase activity in cancer cells. Cells are seeded in 6-well plates (4.10^5 cells/well) and the IC50 concentration of each selected molecule is performed to the cells for 48 or 72 hours. Cells in the control group are incubated with medium only. At the end of the incubation period, the cells in each well are washed with PBS and cells are removed from the wells using a cell scraper via 1 ml of the extraction buffer in the kit. The cell lysate is transferred to ependorf tubes and centrifuged at 10.000 g for 10 minutes at +4° C. and the supernatant is used as a sample for activity determination. After the extracts obtained from the control and experimental groups are diluted 1:25, 40 μl extracts is transferred to two wells in the 96-well plate in the kit. In addition, the standard solution in the kit is diluted according to the kit instructions and each concentration is transferred 40 μl into three wells. 10 μl of 40 mM ATP-2Na solution is added to all wells and the plate is incubated at 37° C. for 30 minutes. After incubation, all wells are washed 4 times with wash buffer. 100 μl of blocking solution is added to each well and incubated again at 37° C. for 30 minutes. After incubation, the liquid in the wells is discarded and 50 μl of anti-phosphotyrosine-HRP solution is added to each well and incubated at 37° C. for 30 minutes. The wells are washed again four times with wash buffer and 100 μl of HRP-substrate solution (TMBZ) is added to each well and incubated at 37° C. for 15 minutes. The reaction is finished by adding 100 μl of stop solution to each well and the optical density in each well is measured at 405 nm with a microplate reader (BioTek, USA). The tyrosine kinase activity in each sample is calculated from the standard curve obtained from the absorbance values of the standard solutions with the kit (Chan W Y, Lau P M, Yeung K W, Kong S K. The second generation tyrosine kinase inhibitor dasatinib induced eryptosis in human erythrocytes—An in vitro study. Toxicol Lett. 2018; 295:10-21). This activity is normalized compared to the control group by dividing by the amount of protein in each sample.
(§2) The effects of 11 2-indolinone compounds (Y1, Y2, Y3, Y4, Y5, Y8, Y14, Y21, Y23, 20C and 22C) having the structure of formula (5), which are prominent with their cytotoxicity in A498, MIAPaCa-2 and HCT-116 cancer cell lines and nontoxic properties in healthy cells, on general tyrosine kinase activity in cancer cells are determined.

[2] = test system: general tyrosine kinase activity in A498 kidney cancer cells; assay: General tyrosine kinase activity (ELISA) in A498 cells; type: cell-based, human; conditions: IC50 concentration
Method: as §1, with “After incubation, all wells are washed 4 times with wash buffer. 100 μl of blocking solution is added to each well and incubated again at 37° C. for 30 minutes. After incubation, the liquid in the wells is discarded and 50 μl of anti-phosphotyrosine-HRP solution is added to each well and incubated at 37° C. for 30 minutes. The wells are washed again four times with wash buffer and 100 μl of HRP-substrate solution (TMBZ) is added to each well and incubated at 37° C. for 15 minutes.” left out, “This activity is normalized compared to the control group by dividing by the amount of protein in each sample.” left out
as §2

A498 cells = assay: Apoptosis/necrosis detection, Annexin V/PI flow cytometry, A498; type: cell-based, human
Method: After incubation with 2-indolinone compounds (IC50 μM concentration; 48 and/or 72 hours), cells are washed twice with PBS and the cell pellet is suspended in Annexin V binding buffer. After this incubation, cells are incubated with FITC-conjugated Annexin V and propidium iodine staining solution for 15 minutes in the dark and at room temperature. Then, cells are analyzed by flow cytometry (Beckman coulter, Navios) (Wlodkowic, D., Skommer, J, Darzynkiewicz, Z. 2009. Flow cytometry-based apoptosis detection, Methods Mol Biol., 559, 1-14).

human cancer cells = assay: MTT cell viability, human cancer cells overall; type: cell-based; conditions: cell line as discussed at the place
Description: The cytotoxicity, general tyrosine kinase inhibitory effects and cell death (apoptosis/necrosis) assays of 1-benzyl-3-(1H-indol-3-ylmethylidene)-1,3-dihydro-2H-indol-2-one derivatives (Formula 5) of the present invention are studied by the following methods. […] HUVEC (human umbilical vein endothelial cell), MCF-10F (human breast epithelial cell) and Beas2b (human lung bronchial epithelial cell) cell lines have been used as healthy control cells in MTT experiments.
Beas2b (human lung bronchiole epithelial cell) and HEK293 (renal tubule epithelium) cells used as normal cell lines were cultured in RPMI medium, and HUVEC (human umbilical cord endothelial cells) and MCF-10F (human breast epithelial cell) cells are cultured in DMEM medium containing 100 µg/ml penicillin/streptomycin. The cells, which covered 70% of the culture flask, are washed with phosphate buffer and then removed from the surface of the flask by application of trypsin-ethylenediamine tetraacetic acid (Trypsin-EDTA; 0.25%) solution, passaged, counted and seeded on appropriate plates before each experiment. Cells are treated with a total of 45 2-indolinone compounds (5) at concentrations of 0.1, 1, 5 and 10 μM. Stock compounds are prepared in 1 ml dimethylsulfoxide (DMSO) and 4 different dilutions were prepared with medium and performed to the cells. Control group cells are treated with DMSO at a similar concentration to the experimental groups.
MTT (3-(4,5-dimethylthiazol-2-yl)-2,5-diphenyl-2H-tetrazolium bromide) colorimetric assay provides quantitation of viable cells with ongoing mitochondrial activity in culture medium. According to the standard procedure in cell culture conditions, cells are maintained in RPMI-1640 and DMEM culture media containing 10% FBS and 1% penicillin/streptomycin. The trypan blue test is used for cell counts.
The effects of 45 2-indolinone compounds (5) on cell viability in all cancer cell lines are investigated by MTT assay. Cells are seeded in a 96-well flat bottom plate with 5000 cells in each well and 2-indolinone compounds (5) at concentrations of 0.1, 1, 5 and 10 μM are performed to the cells the next day. After 48 and/or 72 hours following treatment with 2-indolinone compounds, 50 μl of the supernatant is slowly discarded (as it was acid medium) and MTT at a concentration of 5 mg/ml is added to each well in a volume of 10 μl. After incubation for 4 hours, the formazan crystals formed in the wells are dissolved by adding 100 μl DMSO and the optical density is read at 570 nm test wavelength and 630 nm reference wavelength. Cell viability is expressed as % cell viability by comparing the absorbance of control and test wells. IC50 value is calculated from the dose-response curves prepared for each compound. In addition, the possible DMSO effect is eliminated by preparing negative control wells compatible with the amount of DMSO contained in the compounds. To understand the reaction of the compounds with MTT, cell-free (MTT+compounds) negative controls are prepared at the concentrations used (Mosmann, 1983). […] The absorbance values obtained are compared to the control and statistically evaluated by unpaired t-test using “Graphpad Prism 5.04” software. “P<0.05” is accepted as significant. When evaluating cytotoxic effects, the present inventors aim for the inventive compounds to be effective in cancer cells and ineffective in healthy cells. […]

[3] = MTT, no * mark (incubation time not specified)

O=C1/C(=C\c2c[nH]c3ccccc23)c2ccccc2N1Cc1ccccc1 [Y1]
selectivity index (MIAPaCa-2 cells): > 23
IC50 (MIAPaCa-2 cells; [3]): 0.43 µM
general tyrosine kinase activity compared to control [1]: significantly decreased; also recorded: decreased the general tyrosine kinase activity

Cc1ccc2c(c1)/C(=C/c1c[nH]c3ccccc13)C(=O)N2Cc1cccc(F)c1 [Y8]
selectivity index (MIAPaCa-2 cells): > 19
IC50 (MIAPaCa-2 cells; [3]): 0.54 µM
general tyrosine kinase activity compared to control ([2]; 72 h): did not cause a significant change
general tyrosine kinase activity compared to control [1]: significantly decreased; also recorded: decreased the general tyrosine kinase activity

Cc1ccc2c(c1)/C(=C/c1c[nH]c3ccccc13)C(=O)N2Cc1ccccc1 [Y3]
IC50 (MIAPaCa-2 cells; Homo sapiens, MIA PaCa-2, MTT, no * mark (incubation time not given)): 0.13 µM
selectivity index (MIAPaCa-2 cells): > 77
general tyrosine kinase activity compared to control ([2]; 48 h): significantly decreased; also recorded: decreased the general tyrosine kinase activity
general tyrosine kinase activity compared to control [1]: significantly decreased; also recorded: decreased the general tyrosine kinase activity
necrosis compared to control (A498 cells; A498): no increase or decrease; also recorded: did not cause necrosis
Apoptosis rate compared to control (A498 cells; A498, IC50 concentration): increased significantly

O=C1/C(=C\c2c[nH]c3ccccc23)c2cc(OC(F)(F)F)ccc2N1Cc1ccccc1 [Y4]
selectivity index (MIAPaCa-2 cells): > 19
IC50 (MIAPaCa-2 cells; [3]): 0.53 µM
general tyrosine kinase activity compared to control [1]: significantly decreased; also recorded: decreased the general tyrosine kinase activity
potency/selectivity compared with sunitinib malate (human cancer cells): more potent than Sunitinib malate
